Here are results for four compounds from patent publication US8008355B2, “Endosomolytic poly(vinyl ether) polymers” (Roche Madison Inc., priority 2002, dated 2011).

Broadly, the pKa is the pH at which an ionisable group is half protonated.

For data set [1] the following is noted: amines with electron withdrawing groups; cited from earlier work.
A short description of data set [2]: Rate of cleavage of linkages. It counts as physicochemical.

Take `N#CCN` [Polymer H2NCH2CN, H2NCH2CN]: in data set [1], the pKa is reported as 5.34.

As for `CC1CCC(=N)S1` (stereo not shown) [Linkage X, 5-methyl-2-iminothiolane], in data set [2], the “rate of cleavage, slower than an SMTP linkage (Compound XI)” value was determined as 4 ×.

For the compound `CCN(CC)CCC#N` [(C2H5)2N(CH2)2CN], the pKa in data set [1] is given as 7.65.

In the case of `CCN(CCC#N)CCC#N` [C2H5N(CH2CH2CN)2], the pKa in data set [1] is on record as 4.55.
